Experimental findings from US7731960B2, “Antibodies that inhibit transport activity of peptide transporters” (Chugai Seiyaku Kabushiki Kaisha, priority 2003, dated 2010) are described below.

The term inhibition denotes the percentage by which the read-out fell short of the control.

Type in all cases: cell-based
Data set [1] has as its system human pancreatic cancer cell line AsPC-1. Description: Cell growth inhibition of AsPC-1, MTS assay after six days of culture. As to the method: FIG. 3 is a graph showing the cell growth inhibitory effect of AT-264 against human pancreatic cancer cell line AsPC-1. The data are shown as an average±S.D. (n=3 to 4).
AT-264 was dissolved in RPMI1640-10 mM Hepes (hereinafter, abbreviated as ‘the medium’) containing 0.5% ethanol and 0.5% DMSO to prepare 2.5 mM AT-264 solution. Then, this solution was diluted with the medium to prepare 0.625 mM and 0.0625 mM AT-264 solutions.
A 5×10^4 cells/mL solution of human pancreatic cancer cell line AsPC-1 was prepared using a medium containing 50% FBS. This suspension was seeded at 40 μL/well (2×10^3 cells) onto a 96-well plate pre-coated with Collagen type I, and 160 μL of the AT-264 solution was added. This was cultured for six days in a CO2 incubator (on the second day of culture, 100 units/mL penicillin and 0.1 mg/mL streptomycin were added). On the sixth day of culture, the number of viable cells was quantified by MTS assay.
(Tetrazolium dyes change colour on reduction, which living cells bring about.)

Data set [2] concerns human pancreatic cancer cell line BxPC-3. Kind of data set: Cell growth inhibition of BxPC-3, MTS assay after six days of culture. As to the method: FIG. 5 is a graph showing the cell growth inhibitory effect of AT-264 against human pancreatic cancer cell line BxPC-3. The data are shown as an average±S.D. (n=6).
AT-264 was dissolved in RPMI1640-10 mM Hepes with 100 units/mL penicillin and 0.1 mg/mL streptomycin (hereinafter, abbreviated as ‘the medium’) containing 0.5% ethanol and 0.5% DMSO to prepare 2.5 mM AT-264 solution. Furthermore, this solution was diluted with the medium to prepare 0.625 mM and 0.0625 mM AT-264 solutions.
5×10^4 cells/mL solution of BxPC-3 was prepared using the medium containing 50% FBS. This suspension was seeded at 40 μL/well (2×10^3 cells) onto a 96-well plate pre-coated with Collagen type I, and 160 μL of AT-264 solution was added. This was cultured for six days in a CO2 incubator, and on the sixth day of culture, the number of viable cells was quantified by MTS assay.

In data set [3] the target is T1, human PepT1 (Homo sapiens, UniProt P46059).
T1 sequence (P46059 1-708): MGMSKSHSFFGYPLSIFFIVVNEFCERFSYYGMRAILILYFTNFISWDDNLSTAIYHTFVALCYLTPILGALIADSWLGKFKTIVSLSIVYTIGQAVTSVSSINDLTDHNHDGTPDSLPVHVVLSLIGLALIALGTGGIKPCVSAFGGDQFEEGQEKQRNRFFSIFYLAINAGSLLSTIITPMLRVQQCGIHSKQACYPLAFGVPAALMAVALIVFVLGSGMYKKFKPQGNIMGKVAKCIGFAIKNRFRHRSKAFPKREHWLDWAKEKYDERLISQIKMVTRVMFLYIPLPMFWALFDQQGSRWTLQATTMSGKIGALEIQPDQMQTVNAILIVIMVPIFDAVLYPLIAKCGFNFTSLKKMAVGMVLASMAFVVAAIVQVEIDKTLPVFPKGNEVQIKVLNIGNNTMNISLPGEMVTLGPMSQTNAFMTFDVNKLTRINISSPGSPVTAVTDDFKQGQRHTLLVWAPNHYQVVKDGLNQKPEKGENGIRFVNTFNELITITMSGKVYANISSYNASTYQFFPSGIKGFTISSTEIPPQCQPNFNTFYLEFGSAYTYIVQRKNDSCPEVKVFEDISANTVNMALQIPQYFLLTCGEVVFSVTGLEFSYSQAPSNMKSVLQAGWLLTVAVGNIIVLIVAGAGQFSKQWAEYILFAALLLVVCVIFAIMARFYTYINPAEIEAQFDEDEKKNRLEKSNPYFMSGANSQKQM
Description: [14C] glycylsarcosine uptake into BaF3/PepT1 cells. Conditions: FIG. 2. The text has this:
FIG. 2 is a graph showing the PepT1 inhibiting ability of AT-264 in BaF3 cells.
The ability of AT-264 to inhibit PepT1 was examined by forcedly expressing human PepT1 in mouse bone marrow-derived BaF3 cells (hereinafter abbreviated as BaF3/PepT1).

The target in data set [4] is T2, human PepT2 (Homo sapiens, UniProt Q16348).
T2 construct: expressed in transfected cells; host or cells: murine bone marrow-derived BaF3 cells
T2 sequence (Q16348 1-729): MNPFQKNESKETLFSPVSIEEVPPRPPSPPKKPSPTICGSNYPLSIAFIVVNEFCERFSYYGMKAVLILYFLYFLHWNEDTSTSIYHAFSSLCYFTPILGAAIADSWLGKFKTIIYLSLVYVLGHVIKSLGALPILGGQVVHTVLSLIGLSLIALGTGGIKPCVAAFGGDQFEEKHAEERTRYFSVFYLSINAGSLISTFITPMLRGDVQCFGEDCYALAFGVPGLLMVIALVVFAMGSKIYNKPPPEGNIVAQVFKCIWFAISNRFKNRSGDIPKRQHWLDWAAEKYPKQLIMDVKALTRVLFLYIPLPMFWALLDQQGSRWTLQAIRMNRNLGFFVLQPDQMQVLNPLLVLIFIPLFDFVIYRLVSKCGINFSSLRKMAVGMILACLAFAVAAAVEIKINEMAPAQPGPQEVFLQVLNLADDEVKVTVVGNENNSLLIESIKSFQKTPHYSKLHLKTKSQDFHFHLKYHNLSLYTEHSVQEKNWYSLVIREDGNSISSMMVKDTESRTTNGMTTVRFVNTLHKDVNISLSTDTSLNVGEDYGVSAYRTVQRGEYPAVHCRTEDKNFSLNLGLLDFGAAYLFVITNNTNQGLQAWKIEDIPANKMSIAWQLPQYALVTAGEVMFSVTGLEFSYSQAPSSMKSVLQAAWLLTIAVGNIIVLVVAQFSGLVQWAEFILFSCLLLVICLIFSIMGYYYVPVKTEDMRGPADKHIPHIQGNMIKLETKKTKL
Description: [3H] glycylsarcosine uptake into BaF3/PepT2 cells. Conditions: FIG. 4. The text has this:
FIG. 4 is a graph showing the PepT2 inhibiting ability of AT-264 in BaF3/PepT2. The data are shown as an average±S.D. (n=3 to 4).
The ability of AT-264 to inhibit PepT2 was examined using a murine bone marrow-derived cell line BaF3 in which human PepT2 is forcedly expressed (hereinafter, abbreviated as BaF3/PepT2).

Turning to `N=C(N)c1cccc(CC(NS(=O)(=O)NCc2cccc3ccccc23)C(=O)N2CCCCC2C(=O)O)c1` (centres unmarked) [AT-264], the cell growth inhibition result in data set [1] (AsPC-1, 0.5 mM AT-264, six days, MTS assay) is reported as “slight”. Besides, the “morphological changes under the microscope” value in data set [1] (AsPC-1 in the presence of AT-264) and in data set [2] (BxPC-3 in the presence of AT-264) was “not observed” throughout. Moreover, the inhibition at 2000 µM in data set [1] (Homo sapiens, ASPC1, 144 h, AsPC-1, 2 mM AT-264, six days, MTS assay) was approximately 30%; in data set [2] (Homo sapiens, 144 h, BxPC-3, 2 mM AT-264, six days, MTS assay) it was approximately 75%. Besides, in data set [2] (Homo sapiens, 144 h, BxPC-3, 0.5 mM AT-264, six days, MTS assay), the inhibition at 500 µM was approximately 20%. The “uptake of [14C] glycylsarcosine into cells” value in data set [3] is “inhibited in a concentration-dependent manner”. Besides, in data set [4], the “uptake of [3H] glycylsarcosine into cells” value is recorded as “inhibited in a concentration-dependent manner”.
